Read-outs that look alike come from different tables or passages of the source. Bounds are passed on as bounds.

The values below come from PMC6138237, “Machine intelligence decrypts β-lapachone as an allosteric 5-lipoxygenase inhibitor” (Chemical Science, 2018).

Series [1] is described as follows: Dynamic light scattering (colloidal aggregation). In kind it is physicochemical. The note with it: for Count rate (kcps): 25 °C.
Series [2] has as its target MNK2 (Homo sapiens, UniProt Q9HBH9). Kind of series: ExpresS Diversity Kinase Profile, Cerep (LANCE): MNK2. It counts as biochemical. (In general: Time-resolved FRET reads energy transfer from a long-lived donor to a nearby acceptor.)
Series [3] concerns the target T1, EphA3 (Homo sapiens, UniProt P29320).
T1 sequence (P29320 21-983): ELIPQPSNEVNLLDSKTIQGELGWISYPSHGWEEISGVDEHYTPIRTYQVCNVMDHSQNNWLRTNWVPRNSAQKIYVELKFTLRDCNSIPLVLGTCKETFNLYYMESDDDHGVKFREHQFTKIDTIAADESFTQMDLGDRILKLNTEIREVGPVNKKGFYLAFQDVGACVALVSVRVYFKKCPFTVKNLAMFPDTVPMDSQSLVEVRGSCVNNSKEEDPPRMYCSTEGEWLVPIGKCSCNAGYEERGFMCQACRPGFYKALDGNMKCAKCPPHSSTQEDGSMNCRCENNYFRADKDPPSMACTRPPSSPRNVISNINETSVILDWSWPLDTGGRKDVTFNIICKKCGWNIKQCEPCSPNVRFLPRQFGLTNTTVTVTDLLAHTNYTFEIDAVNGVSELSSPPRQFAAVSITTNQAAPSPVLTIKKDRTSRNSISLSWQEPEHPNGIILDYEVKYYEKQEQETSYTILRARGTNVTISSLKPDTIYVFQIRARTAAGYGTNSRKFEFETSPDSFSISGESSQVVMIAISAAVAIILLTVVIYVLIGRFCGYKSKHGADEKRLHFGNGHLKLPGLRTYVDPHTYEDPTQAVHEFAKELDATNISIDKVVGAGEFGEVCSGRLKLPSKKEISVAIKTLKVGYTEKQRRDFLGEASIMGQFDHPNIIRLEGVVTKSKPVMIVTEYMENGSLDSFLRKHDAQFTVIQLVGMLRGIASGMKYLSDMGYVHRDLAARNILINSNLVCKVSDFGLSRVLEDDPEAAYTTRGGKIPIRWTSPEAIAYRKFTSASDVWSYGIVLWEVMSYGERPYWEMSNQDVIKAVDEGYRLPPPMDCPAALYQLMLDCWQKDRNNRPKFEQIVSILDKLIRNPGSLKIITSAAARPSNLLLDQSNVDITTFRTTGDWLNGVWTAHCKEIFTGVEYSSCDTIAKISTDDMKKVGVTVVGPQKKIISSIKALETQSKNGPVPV
Kind of series: ExpresS Diversity Kinase Profile, Cerep (LANCE): EphA3. In kind it is biochemical.

For series [4], the target named is p38α (Homo sapiens, UniProt Q16539). Kind of series: ExpresS Diversity Kinase Profile, Cerep (LANCE): p38α. The note with it: 150 µM. It counts as biochemical.
The target of series [5] is T2, 12-LO (Homo sapiens, UniProt P18054).
T2 sequence (P18054 1-663): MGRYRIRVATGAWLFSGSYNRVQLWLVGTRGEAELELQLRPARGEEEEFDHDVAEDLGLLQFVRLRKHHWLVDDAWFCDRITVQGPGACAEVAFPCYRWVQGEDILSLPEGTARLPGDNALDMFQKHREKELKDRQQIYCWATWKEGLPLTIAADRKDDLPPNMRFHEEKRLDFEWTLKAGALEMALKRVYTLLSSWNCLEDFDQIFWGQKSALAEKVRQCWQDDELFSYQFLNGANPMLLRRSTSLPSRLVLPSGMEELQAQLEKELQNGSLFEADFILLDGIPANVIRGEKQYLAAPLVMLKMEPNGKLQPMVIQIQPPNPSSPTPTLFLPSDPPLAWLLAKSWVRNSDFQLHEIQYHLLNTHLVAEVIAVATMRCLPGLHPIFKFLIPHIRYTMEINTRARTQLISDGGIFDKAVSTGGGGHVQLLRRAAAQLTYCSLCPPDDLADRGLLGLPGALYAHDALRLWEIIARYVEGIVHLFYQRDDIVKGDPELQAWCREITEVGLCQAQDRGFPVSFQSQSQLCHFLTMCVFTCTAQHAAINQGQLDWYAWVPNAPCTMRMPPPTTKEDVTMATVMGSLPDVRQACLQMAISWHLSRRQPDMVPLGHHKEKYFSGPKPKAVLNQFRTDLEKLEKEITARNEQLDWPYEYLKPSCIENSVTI
Kind of series: 12-LO inhibition in intact human neutrophils.

Series [6] deals with EP2 (Homo sapiens, UniProt P43116). Kind of series: EP2 functional antagonist assay, Cerep (PGE2 100 nM, cAMP).
Series [7] has as its target Pim2 (Homo sapiens, UniProt Q9P1W9). Kind of series: ExpresS Diversity Kinase Profile, Cerep (LANCE): Pim2. In kind it is biochemical. Conditions: Flag: Interference.
Series [8] deals with CaMK2α (Homo sapiens, UniProt Q9UQM7). Kind of series: ExpresS Diversity Kinase Profile, Cerep (LANCE): CaMK2α. It counts as biochemical.
[9] abbreviates: n = 2, read-out: % Inhibition of control values, Mean.
Setting [10] is: read-out: % Inhibition of control values, 1st measurement.
The mark [11] stands for this setting: read-out: % Inhibition of control values, 2nd measurement.

Sequence of CaMK2α (Q9UQM7 whole entry): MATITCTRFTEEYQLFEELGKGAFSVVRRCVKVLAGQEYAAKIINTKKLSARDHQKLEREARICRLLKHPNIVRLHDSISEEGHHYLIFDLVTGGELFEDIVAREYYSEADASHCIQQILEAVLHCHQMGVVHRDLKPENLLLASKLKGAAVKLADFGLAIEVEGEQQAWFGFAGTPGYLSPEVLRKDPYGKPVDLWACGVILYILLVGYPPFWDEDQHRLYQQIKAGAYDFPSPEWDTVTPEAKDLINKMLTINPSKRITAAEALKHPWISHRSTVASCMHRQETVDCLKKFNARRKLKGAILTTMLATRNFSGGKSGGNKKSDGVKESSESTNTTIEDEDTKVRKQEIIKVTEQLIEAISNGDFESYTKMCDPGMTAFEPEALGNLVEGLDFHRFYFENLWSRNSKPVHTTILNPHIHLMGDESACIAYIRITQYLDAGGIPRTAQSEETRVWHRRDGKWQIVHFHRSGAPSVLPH
Sequence of p38α (Q16539 whole entry): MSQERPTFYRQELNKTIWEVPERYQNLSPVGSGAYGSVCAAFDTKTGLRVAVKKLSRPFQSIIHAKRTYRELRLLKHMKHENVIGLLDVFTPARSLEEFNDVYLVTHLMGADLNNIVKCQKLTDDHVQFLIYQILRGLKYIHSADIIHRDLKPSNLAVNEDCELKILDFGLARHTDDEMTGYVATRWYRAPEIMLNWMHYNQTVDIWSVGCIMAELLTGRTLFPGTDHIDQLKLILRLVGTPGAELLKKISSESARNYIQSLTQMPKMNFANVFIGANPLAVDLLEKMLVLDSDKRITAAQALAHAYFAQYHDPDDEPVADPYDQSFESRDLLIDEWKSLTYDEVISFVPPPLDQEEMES
Sequence of MNK2 (Q9HBH9 whole entry): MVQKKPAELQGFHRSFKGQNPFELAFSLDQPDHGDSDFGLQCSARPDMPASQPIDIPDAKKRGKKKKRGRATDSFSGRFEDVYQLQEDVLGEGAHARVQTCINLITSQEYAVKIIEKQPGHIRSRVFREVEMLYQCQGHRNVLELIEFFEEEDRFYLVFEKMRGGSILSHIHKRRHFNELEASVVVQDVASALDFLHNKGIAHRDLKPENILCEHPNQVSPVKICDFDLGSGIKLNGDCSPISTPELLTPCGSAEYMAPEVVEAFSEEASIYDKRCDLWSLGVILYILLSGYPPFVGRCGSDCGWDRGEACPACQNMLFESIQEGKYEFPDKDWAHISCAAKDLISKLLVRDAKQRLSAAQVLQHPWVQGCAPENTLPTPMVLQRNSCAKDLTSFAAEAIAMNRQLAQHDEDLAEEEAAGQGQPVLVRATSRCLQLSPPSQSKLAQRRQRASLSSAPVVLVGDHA
Sequence of Pim2 (Q9P1W9 whole entry): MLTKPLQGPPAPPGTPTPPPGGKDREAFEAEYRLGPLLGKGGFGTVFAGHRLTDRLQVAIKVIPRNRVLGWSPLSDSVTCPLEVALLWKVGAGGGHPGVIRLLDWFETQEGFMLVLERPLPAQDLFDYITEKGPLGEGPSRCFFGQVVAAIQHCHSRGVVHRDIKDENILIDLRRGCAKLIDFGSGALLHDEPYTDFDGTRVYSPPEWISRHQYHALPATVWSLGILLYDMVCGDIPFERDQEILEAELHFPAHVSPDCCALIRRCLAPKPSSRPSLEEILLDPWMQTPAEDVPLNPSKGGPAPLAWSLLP
Sequence of EP2 (P43116 whole entry): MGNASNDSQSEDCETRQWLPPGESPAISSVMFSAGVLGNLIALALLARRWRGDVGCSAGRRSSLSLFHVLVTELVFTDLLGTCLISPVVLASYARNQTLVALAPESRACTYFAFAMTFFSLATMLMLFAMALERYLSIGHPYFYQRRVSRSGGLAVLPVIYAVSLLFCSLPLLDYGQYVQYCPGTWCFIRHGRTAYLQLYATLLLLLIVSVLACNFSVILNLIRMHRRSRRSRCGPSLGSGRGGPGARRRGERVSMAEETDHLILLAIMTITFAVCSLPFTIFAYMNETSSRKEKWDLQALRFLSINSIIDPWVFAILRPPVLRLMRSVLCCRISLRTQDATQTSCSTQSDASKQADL

What is called inhibition is how much of the control response was suppressed. For orientation: IC50 means the concentration at which inhibition is half-maximal. On to `CC1(C)CCC2=C(O1)c1ccccc1C(=O)C2=O` [β-Lapachone], for which the “Count rate (kcps)” value came to 60.7 kcps in series [1] (25 µM in H2O + 0.1% DMSO), 47.6 kcps in series [1] (50 µM in H2O + 0.1% DMSO) and 136.1 kcps in series [1] (100 µM in H2O + 0.1% DMSO). Further, the “aggregation by dynamic light scattering” value in series [1] (at relevant concentrations) was “no aggregation”. Besides, the inhibition at 150 µM amounted to 80.1% in series [2] (setting [9]); 78.1% in series [2] (setting [10]); 82.1% in series [2] (setting [11]); 65.1% in series [3] (setting [9]); 66.8% in series [3] (setting [10]); 63.3% in series [3] (setting [11]). Moreover, the inhibition at 150 µM in series [4] (setting [9]) worked out at 25.1%; in series [4] (setting [10]) it was 27.1%; in series [4] (setting [11]), 23.1%; in series [7] (setting [10]) it was 79.6%; in series [7] (setting [11]), 82.6%; in series [8] (setting [9]), 54.8%. The inhibition at 150 µM amounted to 61.5% in series [8] (setting [10]) and 48% in series [8] (setting [11]). For the same compound, the IC50 in series [5] was over 30 µM; in series [6] it was about 100 µM.
